Source: patent US7498329B2, “Salt form of dopamine agonist” (Pfizer Inc., priority 2005, dated 2009)

Key:
[1] = Water sorption / hygroscopicity (Dynamic Vapour Sorption); type: physicochemical
Experimental: Water sorption of 5-[(2R,5S)-5-methyl-4-propylmorpholin-2-yl]pyridin-2-amine di-S-camsylate monohydrate) at 30° C. Sorption at 90% RH is 0.316%(w/w) of dry weight. This value relates to non-bound water and is in addition to that involved in the crystal lattice.
Dynamic Vapour Sorption (DVS): Automated Sorption Analyser Model DVS-1. Manufactured by Surface Measurements Systems Ltd. UK. Solid (10-20 mg) is exposed to controlled relative humidity (% RH) environment and the weight change recorded over time. The humidity was stepped from 0 to 90 to 0% RH in 15% RH intervals. A rate of sorption of 0.0005%/min needs to be achieved at each humidity before exposure to the next humidity in the method. When a sample is deliquescent equilibrium sorption is not always achieved.

dopamine D3 receptor [2] = target: T1, dopamine D3 receptor (Homo sapiens, UniProt P35462); details: according to WO2004/052372; cited from earlier work
dopamine D3 receptor [3] = target: T1, dopamine D3 receptor; experiment: Functional activity at the dopamine D3 receptor (methods of WO 2004/052372); type: cell-based
Experimental: Activity at the dopamine D3 receptor may be determined using the methods described in WO 2004/052372, which is incorporated herein by reference. […] Selectivity is calculated as the D2 EC50 value divided by the D3 EC50 value.

[4] = Hydrate kinetic stability at 0% RH (isothermal thermogravimetric analysis); type: physicochemical
Experimental: Isothermal gravimetric analysis of 5-[(2R,5S)-5-methyl-4-propylmorpholin-2-yl]pyridin-2-amine di-S-camsylate monohydrate at 40, 45, 80 and 85° C. Material was held at a selected temperature with a 0% RH flow of nitrogen. 5-[(2R,5S)-5-methyl-4-propylmorpholin-2-yl]pyridin-2-amine di S-camsylate salt dehydrates at 85° C., 0% RH. Many hydrates would be lost at 30° C./0% RH.
ThermoGravimetric Analysis (TGA): Manufactured by TA instruments, model 2950. Approximately 8 mg of the sample was held at analysis temperature in an open pan with 0% RH nitrogen flow for a minimum of 30 min. Results are representative of the kinetic stability of the hydrate over the period of time the sample was exposed.

[5] = Hydrate stability under reduced partial pressure (vacuum drying conditions); type: physicochemical; details: reduced partial pressure at 40° C.
Text: Typically a pharmaceutical hydrate would be expected to dehydrate within a few hours of exposure to 0% RH. […] This is a much higher temperature than would normally be expected for a hydrated salt. Such kinetic stability is desirable for allowing the compound to be successfully milled prior to formulation. • Many hydrates are not stable to the harsh vacuum drying conditions required in the isolation of a pharmaceutical drug product. However, 5-[(2R,5S)-5-methyl-4-propylmorpholin-2-yl]pyridin-2-amine di-S-camsylate monohydrate would be stable in such a process as, upon exposure to reduced partial pressure at 40° C., the hydrate remains down to 10 mbar.

T1 sequence (P35462 whole entry, species assumed): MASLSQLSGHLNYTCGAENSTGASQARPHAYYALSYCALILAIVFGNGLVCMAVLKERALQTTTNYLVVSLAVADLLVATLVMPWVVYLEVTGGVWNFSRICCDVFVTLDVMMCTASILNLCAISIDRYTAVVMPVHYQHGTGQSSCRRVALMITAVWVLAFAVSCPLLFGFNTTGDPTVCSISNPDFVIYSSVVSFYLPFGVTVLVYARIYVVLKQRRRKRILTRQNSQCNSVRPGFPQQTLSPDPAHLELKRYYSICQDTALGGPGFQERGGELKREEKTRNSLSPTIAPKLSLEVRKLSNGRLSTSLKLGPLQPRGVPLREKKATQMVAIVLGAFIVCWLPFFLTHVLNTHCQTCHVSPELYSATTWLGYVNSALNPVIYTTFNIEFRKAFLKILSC

SMILES	deliquescence [1]	D3 agonist activity (in words) (dopamine D3 receptor [2])	hygroscopicity [1]	water sorption ([1]; 90% RH, 30° C., non-bound water)	EC50 (dopamine D3 receptor [3]) [nM]	selectivity for D3 over D2 (dopamine D3 receptor [3]; D2 EC50 value divided by the D3 EC50 value) [fold]	dehydration of the hydrate ([4]; after 3.5 hours, 0% relative humidity (RH) at 30° C.)	temperature at which the dehydration event was observed ([4]; heating in a flow of 0% RH (nitrogen)) [°C]	pressure down to which the hydrate remains [5] [mbar]
CCCN1C[C@@H](c2ccc(N)nc2)OC[C@@H]1C (single isomer, unassigned)	deliquescent	selective D3 agonist							
CCCN1C[C@@H](c2ccc(N)nc2)OC[C@@H]1C [5-[(2R,5S)-5-methyl-4-propylmorpholin-2-yl]pyridine-2-amine, di((1S)-10-camphorsulfonate)monohydrate]	not deliquescent		non-hygroscopic	0.316 %(w/w) of dry weight	21	476	does not dehydrate	85	10
